In brackets after ≈: the same amount, converted by molar mass.
Tests used:
Type in all cases: cell-based
[1] = test system: Penicillinsensitive S. aureus (5 strains); assay: MIC, two-fold serial agar dilution, group (G+)-Ia; conditions: Staphylococcus aureus; Mueller-Hinton agar; penicillin-sensitive S. aureus; read-out: Geometric Mean of MIC (G+)-Ia (5 strains)
Description: (§1) In the primary evaluation of the compounds of this invention, the Minimum Inhibitory Concentrations (MIC's) of the compounds and two reference compounds (cefotaxime and ceftazidime) were determined by the two-fold serial agar dilution method in Mueller-Hinton agar against 32 strains of test organisms in six groups.

[2] = test system: Pr. morganii (1 strain), Ent. cloacae (2 strains) and Ser. marcescens (2 strains); assay: MIC, two-fold serial agar dilution, group (G-)-II; conditions: Mueller-Hinton agar; read-out: Geometric Mean of MIC (G-)-II (5)
Description: as §1

[3] = test system: Cephalothinresistant E. coli (3 strains) and Kl. pneumoniae (3 strains); assay: MIC, two-fold serial agar dilution, group (G-)-Ib; conditions: Escherichia coli, read-out: Geometric Mean of MIC (G-)-Ib (6)
Description: as §1

[4] = test system: Cephalothinsensitive E. coli (2 strains), Kl. pneumoniae (1 strain) and Pr. mirabilis (2 strains); assay: MIC, two-fold serial agar dilution, group (G-)-Ia; conditions: Mueller-Hinton agar; cephalothin-sensitive; read-out: Geometric Mean of MIC (G-)-Ia (5)
Description: as §1, with “The preferred compounds of Formula I are those in which R^1 is hydrogen and R^2 is methyl or ethyl. In the most preferred compound, R^2 is methyl. In the” for “In the”
(G-)Ia: Cephalothinsensitive E. coli (2 strains), Kl. pneumoniae (1
strain) and Pr. mirabilis (2 strains)

[5] = test system: Ps. aeruginosa (6 strains); assay: MIC, two-fold serial agar dilution, group (G-)-III; conditions: Pseudomonas aeruginosa; Mueller-Hinton agar; Ps. aeruginosa; read-out: Geometric Mean of MIC (G-)-III (6)
Description: as §1

[6] = test system: Penicillinresistant S. aureus (5 strains); assay: MIC, two-fold serial agar dilution, group (G+)-Ib; conditions: Staphylococcus aureus, read-out: Geometric Mean of MIC (G+)-Ib (5)
Description: as §1
(G+)Ib: Penicillinresistant S. aureus (5 strains)

SMILES	MIC [1] [µg/mL]	MIC [2] [µg/mL]	MIC [3] [µg/mL]	MIC [4] [µg/mL]	MIC [5] [µg/mL]	MIC [6] [µg/mL]
CC(C)O/N=C(\C(=O)NC1C(=O)N2C(C(=O)[O-])=C(C[N+]3(C)CCCC3)CSC12)c1csc(N)n1 (stereo not drawn) [Compound Ic, 7-[(Z)-2-(2-Propoxyimino)-2-(2-aminothiazol-4-yl)acetamido]-3-[(1-methyl-1-pyrrolidinium)methyl]-3-cephem-4-carboxylate]	1.4 (≈ 2.75 µM)	3.2 (≈ 6.29 µM)	1.3 (≈ 2.56 µM)	0.35 (≈ 0.688 µM)	11 (≈ 21.6 µM)	3.6 (≈ 7.08 µM)
CCO/N=C(\C(=O)NC1C(=O)N2C(C(=O)[O-])=C(C[N+]3(C)CCCC3)CSC12)c1csc(N)n1 (stereo not drawn) [Ib, 7-[(Z)-2-Ethoxyimino-2-(2-aminothiazol-4-yl)acetamido]-3-[(1-methyl-1-pyrrolidinium)methyl]-3-cephem-4-carboxylate]	1.4 (≈ 2.83 µM)	1 (≈ 2.02 µM)	0.32 (≈ 0.647 µM)	0.087 (≈ 0.176 µM)	5.6 (≈ 11.3 µM)	3.1 (≈ 6.27 µM)
C=CCO/N=C(\C(=O)NC1C(=O)N2C(C(=O)[O-])=C(C[N+]3(C)CCCC3)CSC12)c1csc(N)n1 (stereo not drawn) [Id, 7-[(Z)-2-Allyloxyimino-2-(2-aminothiazol-4-yl)acetamido]-3-[(1-methyl-1-pyrrolidinium)methyl]-3-cephem-4-carboxylate]	1.8 (≈ 3.55 µM)	2.4 (≈ 4.74 µM)	1.1 (≈ 2.17 µM)	0.53 (≈ 1.05 µM)	13 (≈ 25.7 µM)	3.6 (≈ 7.11 µM)
